Laboratory results: publication PMC11555231 (Nature Communications, 2024)
Bridge positions count the residues as written; N and C are the ends. Square brackets hold non-standard residues; d marks the D form. Peptide text beside a SMILES is read from it.

System: hPADI4-stable mES cells
Assay: High content microscopy of citrullinated histone H3 (H3Cit) in hPADI4-stable mES cells
Type: cell-based, mouse
Settings: mean H3Cit intensity, KSR/2i 3 h, range of peptide concentrations
Description: HaLo-GFP-mito HeLa cells were grown in DMEM (Gibco) supplemented with 10% foetal bovine serum (FBS), penicillin/streptomycin (100 µg/ml) and puromycin (1 µg/ml) at 37 °C, 5% CO2. HaLo-GFP-mito HeLa cell line[82] was profiled by short tandem repeat analysis (STR) and tested negative for mycoplasma by the Cell Services Technology Platform at the Francis Crick Institute. E14 –mouse embryonic stem cells (Cambridge Stem Cell Institute, UK) were cultured in plates coated with 1% gelatine in GMEM supplemented with 10% foetal calf serum (FCS) batch-tested for ES cell culture (Gibco), 0.1 mM non-essential amino acids, 2 mM L-glutamine, 1 mM sodium pyruvate, 0.1 mM β-mercaptoethanol and 50 ng/mL leukaemia inhibitory factor (LIF) (ESGRO, Millipore). For PADI4 activation, cells were cultured in GMEM containing 10% knockout serum replacement (KSR, Life Technologies), 1% FCS batch-tested for ES cell culture (Gibco), 0.1 mM non-essential amino acids, L-glutamine, 1 mM sodium pyruvate, 0.1 mM β-mercaptoethanol, 50 ng/mL LIF (ESGRO, Millipore), 1 μM PD0325901 (AxonMedChem) and 3 μM CHIR99021 (AxonMedChem). For the generation of E14 mES stably expressing human PADI4 (hPADI4-stable), human PADI4 cDNA was inserted into ES E14 cells using the piggyBac transposon system. The Gateway system was used to clone human PADI4 into the piggyBac vector using primers PADI4_AttB1_F and PADI4_AttB2_R (Table S4). pPB-CAG-CTRL (empty vector) or pPB-CAG-hPADI4 vectors […] were transfected with the piggyBac transposase (pPBase) expression vector, pCAGPBase […], by lipofection according to the manufacturer’s instructions (Lipofectamine 2000, Invitrogen). E14 cells constitutively expressing the hygromycin resistance gene and human PADI4 were selected and expanded in media containing […] hygromycin.
E14 cells were seeded onto 96-well PerkinElmer cell carrier ultra plates (Phenoplates) coated with 0.1% gelatine, at 25,000 cells per well and grown overnight at 37 °C, 5% CO2. Outer wells were excluded but medium was added to minimise any edge effects. […]

Q: Which “inhibition of intracellular PADI4 (in words)” value does the source give for `N=C(N)NCCC[C@@H]1NC(=O)[C@H](CC(=O)O)NC(=O)[C@@H](Cc2ccc(O)cc2)NC(=O)CSC[C@@H](C(=O)NCC(N)=O)NC(=O)[C@H](Cc2ccc(O)cc2)NC(=O)[C@H](CCCCN)NC(=O)[C@@H]2CCCN2C(=O)[C@H](Cc2c[nH]cn2)NC(=O)[C@H](CCCNC(=N)N)NC(=O)[C@H](Cc2ccc(O)cc2)NC(=O)[C@H](Cc2c[nH]cn2)NC(=O)[C@H](Cc2c[nH]cn2)NC1=O` [PADI4_3i] ({CH2CO}-[dY]DRHHYRHPKYCG-NH2; thioether N-12) here?
A: no inhibition
